Among the data in article PMC6792352, “Limited Chemical Structural Diversity Found to Modulate Thyroid Hormone Receptor in the Tox21 Chemical Library” (Environmental Health Perspectives, 2019) are CC50 values, retold here.

Where a name gives a salt, the structure may show the parent alone.

The CC50 is the concentration that lowers cell viability or growth by half. High values mean lower toxicity to the cells, low ones greater toxicity to the cells.

A short description of the first data set: in vitro. The settings on record: rat, gh3-tre-luc cells, AC50 (uM) modified / 1000.
In the case of `CC(=O)N[C@@H]([C@@H](O)[C@H](O)[C@H](O)CO)[C@@H](O)CC(=O)C(=O)O` [Aceneuramic acid], the CC50 at 24 h is above 50 µM.
On to `CC(=O)CC(c1ccc([N+](=O)[O-])cc1)c1c(O)c2ccccc2oc1=O` (stereo not shown) [Acenocoumarol], for which the half-maximal cytotoxic concentration (CC50) at 24 h was above 20 µM.
Compound `CC1=CC(=O)NS(=O)(=O)O1` [Acesulfame potassium] displayed a CC50 at 24 h above 90 µM.
The compound `CCOC(C)OCC` [Acetal] had a CC50 at 24 h above 90 µM.
`CC/C=C\CCOC(C)OCC` (stereo not drawn) [Acetaldehyde ethyl cis-3-hexenyl acetal] gave a CC50 at 24 h above 70 µM.
The same measure, in the same setting: the value for `CC=O` [Acetaldehyde] was 3.09 µM; that for `CC(N)=O` [Acetamide] was above 200 µM; that for `CC(=O)Nc1ccc(O)cc1` [Acetaminophen] was above 50 µM.
For `CC(=O)Nc1ccc(OC(=O)c2ccccc2O)cc1` [Acetaminosalol], the cytotoxic concentration (CC50) at 24 h is above 50 µM.
On to `C/C(=N\C#N)N(C)Cc1ccc(Cl)nc1` [Acetamiprid], for which the half-maximal cytotoxic concentration (CC50) at 24 h was above 90 µM.
The same measure, in the same setting: the figure for `CC(=O)Nc1ccccc1` [Acetanilide] is above 90 µM; for `CC(=O)Nc1nnc(S(N)(=O)=O)s1` [Acetazolamide] it is above 90 µM; for `CCOC(=O)CS` [Acetic acid,mercapto-,ethylester] it is above 90 µM.
The compound `CC(=O)OC(C)=O` [Acetic anhydride] showed a CC50 at 24 h above 90 µM.
The same measure, in the same setting: the figure for `CC(=O)CC(=O)Nc1ccccc1` [Acetoacetanilide] is above 90 µM; for `CCOCN(C(=O)CCl)c1c(C)cccc1CC` [Acetochlor] it is above 90 µM; for `CC(=O)c1ccc(S(=O)(=O)NC(=O)NC2CCCCC2)cc1` [Acetohexamide] it is above 90 µM.
On to `CC(=O)NO` [Acetohydroxamic acid], for which the CC50 at 24 h is above 50 µM.
In the case of `CC(=O)C(C)O` (stereo not shown) [Acetoin], the half-maximal cytotoxic concentration (CC50) at 24 h was above 90 µM.
On the same count and under the same terms, the value for `CC(=O)Oc1cc(C)c(OC(C)=O)c2ccccc12` [Acetomenaphthone] was 19.7 µM.
Still for that read-out and setting: the value for `CC(C)=O` [Acetone] was above 90 µM; that for `CC#N` [Acetonitrile] was above 90 µM; that for `CC(=O)c1ccc2c(c1)N(CCCN1CCN(CCO)CC1)c1ccccc1S2` [Acetophenazine dimaleate] was 16.5 µM.
For the compound `CC(=O)c1ccccc1` [Acetophenone], the CC50 at 24 h is above 90 µM.
For the compound `CC(=O)c1ccc2c(c1)N(CCCN(C)C)c1ccccc1S2` [Acetopromazine maleate], the CC50 at 24 h was 9.14 µM.
On the same count and under the same terms, the figure for `CC(=O)Nc1c(I)cc(I)c(C(=O)O)c1I` [Acetrizoic acid] is above 50 µM.
Still for that read-out and setting: the value for `CC(=O)C1=C(C)[C@@H]2C[C@@]3(C1)[C@H](C)CC[C@H]3C2(C)C` [Acetyl cedrene] was 56.9 µM; that for `CCCCOC(=O)CC(CC(=O)OCCCC)(OC(C)=O)C(=O)OCCCC` [Acetyl tributyl citrate] was above 90 µM.
On the same count and under the same terms, the figure for `CC(=O)O[C@H](CC(=O)[O-])C[N+](C)(C)C` [Acetyl-L-carnitine hydrochloride] is above 90 µM.
With `CC(=O)N[C@@H](CC(C)C)C(=O)O` [Acetyl-L-leucine], the cytotoxic concentration (CC50) at 24 h was above 50 µM.
`CC(=O)OCC[N+](C)(C)C` [Acetylcholine chloride] came in with a CC50 at 24 h above 50 µM.
For `CCC(C(=O)NC(=O)NC(C)=O)c1ccccc1` (stereo not shown) [Acetylpheneturide], the CC50 at 24 h is above 50 µM.
`CC(=O)c1cnccn1` [Acetylpyrazine] had a CC50 at 24 h above 100 µM.
On to `CC(=O)Oc1ccccc1C(N)=O` [Acetylsalicylamide], for which the CC50 at 24 h was above 50 µM.
The same measure, in the same setting: the value for `CCOC(=O)CC(CC(=O)OCC)(OC(C)=O)C(=O)OCC` [Acetyltriethyl citrate] was above 90 µM; that for `CC(=O)NCCCCCC(=O)O` [Acexamic acid] was above 50 µM; that for `CSC(=O)c1cccc2nnsc12` [Acibenzolar-S-methyl] was above 90 µM.
Same read-out and setting: the figure for `COc1ccc(N=Nc2cc(C)c(N=Nc3ccc(S(=O)(=O)O)cc3)cc2OC)cc1` [Acid Orange 156] is 64.4 µM; for `Nc1ccc2cc(S(=O)(=O)O)cc(O)c2c1N=Nc1ccccc1C(F)(F)F` [Acid Red 337] it is 89.3 µM; for `CC1=NN(c2ccc(S(=O)(=O)O)cc2)C(=O)C1N=Nc1ccccc1` (stereo not shown) [Acid Yellow 11] it is 69.4 µM.
Same read-out and setting: the value for `CN(C)c1ccc(C(=C2C=CC(=[N+](C)C)C=C2)c2c(O)c(S(=O)(=O)[O-])cc3cc(S(=O)(=O)O)ccc23)cc1` [Acid green 50] was 30.6 µM; that for `O=C(O)c1cc(Oc2ccc(C(F)(F)F)cc2Cl)ccc1[N+](=O)[O-]` [Acifluorfen-sodium] was above 90 µM; that for `CC1(c2ccccc2)OC(C(=O)O)=CC1=O` (stereo not shown) [Acifran] was above 50 µM.
As for `Cc1cnc(C(=O)O)c[n+]1[O-]` [Acipimox], the CC50 at 24 h is above 50 µM.
As for `O=C(O)C(=O)Nc1cccc(-c2nnn[nH]2)c1` [Acitazanolast], the CC50 at 24 h is above 50 µM.
Compound `COc1cc(C)c(/C=C/C(C)=C/C=C/C(C)=C/C(=O)O)c(C)c1C` [Acitretin] showed a cytotoxic concentration (CC50) at 24 h above 50 µM.
In turn, `N[C@H](C(=O)O)[C@@H]1CC(Cl)=NO1` [Acivicin] yielded a CC50 at 24 h of 3.86 µM.
`CC[C@@]1(O)C[C@H](O[C@H]2C[C@H](N(C)C)[C@H](O[C@H]3C[C@H](O)[C@H](O[C@H]4CCC(=O)[C@H](C)O4)[C@H](C)O3)[C@H](C)O2)c2c(cc3c(c2O)C(=O)c2c(O)cccc2C3=O)[C@H]1C(=O)OC` [Aclarubicin hydrochloride] came in with a CC50 at 24 h of 0.114 µM.
The compound `O=C(O)COc1ccccc1/C=N/NC(=O)c1ccncc1` [Aconiazide] gave a CC50 at 24 h above 50 µM.
Still for that read-out and setting: the figure for `CCN1C[C@]2(COC)[C@H](O)C[C@H](OC)[C@]34C1[C@H]([C@H](OC)[C@H]23)[C@]1(OC(C)=O)[C@H]2[C@@H](OC(=O)c3ccccc3)[C@](O)(C[C@H]24)[C@@H](OC)[C@@H]1O` [Aconitine] is above 50 µM.
`CC(=O)OCC(=O)Nc1cc(C#N)cc(NC(=O)COC(C)=O)c1Cl` [Acreozast] yielded a CC50 at 24 h above 50 µM.
Same read-out and setting: the value for `C=CC(OCC)OCC` [Acrolein diethylacetal] was above 90 µM; that for `C=CC(N)=O` [Acrylamide] was above 90 µM.
The same measure, in the same setting: the value for `C=CC(=O)O` [Acrylic acid] was above 50 µM; that for `CCOc1ccc(S(=O)(=O)O)c2cccnc12` [Actinoquinol] was above 50 µM.
Same read-out and setting: the figure for `Nc1nc2c(ncn2COCCO)c(=O)[nH]1` [Acyclovir] is above 20 µM; for `O=C(COc1ccc(Cl)cc1)OCCNC12CC3CC(CC(C3)C1)C2` [Adafenoxate] it is above 50 µM; for `COc1ccc(-c2ccc3cc(C(=O)O)ccc3c2)cc1[C@]12C[C@H]3C[C@H](C[C@H](C3)C1)C2` [Adapalene] it is 1.88 µM.
`CC(C)(C)C(=O)OCOP(=O)(COCCn1cnc2c(N)ncnc21)OCOC(=O)C(C)(C)C` [Adefovir dipivoxil] returned a half-maximal cytotoxic concentration (CC50) at 24 h above 50 µM.

Still in this data set, the particulars now being: rat, gh3-tre-luc cells, AC50 (uM) modified / 1000, Tox21_110001=Tox21_111336; viability, 1 nM T3 present, 24 h.
The compound `CC(=O)Nc1cc([As](=O)(O)O)ccc1O` [Acetarsol] registered a CC50 at 24 h above 50 µM.

Still in this data set, the particulars now being: rat, gh3-tre-luc cells, AC50 (uM) modified / 1000, Tox21_110001=Tox21_200984; viability, 1 nM T3 present, 24 h.
On to `C=CC=O` [Acrolein], for which the CC50 at 24 h is above 90 µM.

Still in this data set, the particulars now being: rat, gh3-tre-luc cells, AC50 (uM) modified / 1000, Tox21_110001=Tox21_202076; viability, 1 nM T3 present, 24 h.
`C=CC#N` [Acrylonitrile]: the CC50 at 24 h is above 100 µM.

Staying with this data set, now noted: rat, gh3-tre-luc cells, AC50 (uM) modified / 1000, Tox21_110001=Tox21_202204; viability, 1 nM T3 present, 24 h.
Take `COP(=O)(NC(C)=O)SC` (stereo not shown) [Acephate]: the CC50 at 24 h was above 90 µM.

Still in this data set, the particulars now being: rat, gh3-tre-luc cells, AC50 (uM) modified / 1000, Tox21_110001=Tox21_302951; viability, 1 nM T3 present, 24 h.
Compound `C=CC#N` [Acrylonitrile] yielded a CC50 at 24 h above 90 µM.
